Experimental data reported in article PMC6037691, “Selenazolyl-hydrazones as Novel Selective MAO Inhibitors With Antiproliferative and Antioxidant Activities: Experimental and In-silico Studies” (Frontiers in Chemistry, 2018).
Values belong to the compound of their own block, whether it stands above or below them.

Tests used:
[1] = tested on: WiDr (colon); test: Antiproliferative activity, WiDr; type: cell-based, human; conditions: for GI50: Homo sapiens
Experimental: (§1) The in vitro antiproliferative activity of investigated compounds was evaluated against six human solid tumor cell lines: A549 (non-small cell lung), HBL-100, (breast), HeLa (cervix), SW1573 (non-small cell lung), as drug sensitive lines, T-47D (breast) and WiDr (colon) as drug resistant lines. These cell lines were a kind gift from Prof. G. J. Peters (VU Medical Center, Amsterdam, The Netherlands). For selectivity studies, the human fibroblasts BJ-hTert cell line was used, which was obtained from Dr. R. Freire (HUC, Tenerife, Canary Islands). Cells were kept in culture medium under standard conditions: RPMI 1640 medium, fetal bovine serum (5%), glutamine (2 mM), penicillin G (100 units/mL) and streptomycin (0.1 mg/mL). Antiproliferative tests were conducted as described earlier (Skehan et al., [1990]; Miranda et al., [2006]). Tested compounds were dissolved in DMSO at an initial concentration of 40 mM. DMSO was used as negative control (0.25% v/v). Antiproliferative activity of the compounds was expressed as GI50, which is the concentration of the compound that inhibits 50% of the culture growth.

[2] = Total reducing power (TRP), modified potassium ferricyanide reduction method; conditions: concentration providing 0.500 of absorbance at 700 nm; mean ± SD, n = 3
Experimental: The mixture containing 0.5 mL of phosphate buffer (0.2 M, pH = 6.6), 0.5 mL of K3[Fe(CN)6] (1%; w/v) and 0.5 mL of the samples (100–1,500 μM) was incubated at 50°C for 20 min. A volume of 0.5 mL of trichloroacetic acid (TCA, 10%; w/v), 0.5 mL of Milli-Q water and 0.5 mL of FeCl3 (0.1%; w/v) was added, followed by intensive vortexing. The absorbance of the resulting mixture was measured after 60 min at 700 nm using phosphate buffer as blank (Oyaizu, [1986]).
(§2) Volume of 0.4 mL of sample solution (50–1,000 μM) was mixed with 1.6 mL of reagent solution [0.6 M H2SO4, 28 mM Na3PO4, and 4 mM (NH4)2MoO4] and resulting mixtures were incubated at 95°C for 90 min. The cooled reaction mixtures were then centrifuged for 10 min (3,000 rpm). The absorbance of the supernatant solution was measured, 1 h after centrifugation, at 695 nm against reagent solution as blank. An increased absorbance in reading in both assays indicated increased antioxidant power, expressed as EC50 values (the sample concentration giving absorbance of 0.500 from the graph of absorbance at 700 nm or 695 nm against compound concentration) (Prieto et al., [1999]).

[3] = tested on: HBL-100 (breast); test: Antiproliferative activity, HBL-100; type: cell-based, human; conditions: for GI50: Homo sapiens
Experimental: as §1

[4] = tested on: A549 (non-small cell lung); test: Antiproliferative activity, A549; type: cell-based, human; conditions: for GI50: Homo sapiens
Experimental: as §1

[5] = DPPH scavenging antioxidant assay; conditions: concentration providing 50% of radicals scavenging activity; mean ± SD, n = 3
Experimental: The experiments were performed according to the literature protocol (Prior et al., [2005]). All tested compounds were initially dissolved in DMSO. The initial concentration of DPPH in methanol was 6.58 × 10^−5 M. A volume of 140 μL of DPPH solution was placed into a 96-well microplate, and then 10 μL solution of the tested compounds was added. Pure DMSO (10 μL) was used as the control. The absorbance at 517 nm was measured after 30 min period of incubation in the dark at 25°C. The Equation (1) was used for calculation of the scavenging activity:
(1) Scavenging activity (%)=Acontrol- Asample/Acontrol×100
where Asample and Acontrol refer to the absorbances at 517 nm of the sample and control, respectively. IC50 values were calculated from the graph of scavenging activity against the concentrations of the samples. IC50 represents the total antioxidant concentration of the sample which decreases the amount of the initial DPPH radical by 50%. Ascorbic acid (vitamin C) was used as positive control (concentration range 10–500 μM).

[6] = Oxygen radical absorbance capacity (ORAC) assay; conditions: Trolox equivalents; mean ± SD, n = 3
Experimental: A modification of original protocol was used (Ou et al., [2001]). Stock solutions of fluorescein substrate (5 μM) and free radical generator AAPH (0.5 M) were prepared in 75 mM potassium phosphate buffer (pH = 7.4). Volume of 100 μL of sample solutions or Trolox in DMSO (20 μM) were mixed with 1,485 μL of buffer and 15 μL of fluorescein solution. The 30 min reaction at 37°C was initiated by adding 250 μL of AAPH solution. Fluorescence conditions were as follows: excitation and emission wavelengths 485 and 511 nm, respectively, slits 2 nm. The relative sample ORAC value was expressed as Trolox equivalents (TE).

[7] = tested on: SW1573 (non-small cell lung); test: Antiproliferative activity, SW1573; type: cell-based, human; conditions: for GI50: Homo sapiens
Experimental: as §1

[8] = Total antioxidant capacity (TAOC), modified phosphomolybdenum method; conditions: concentration providing 0.500 of absorbance at 695 nm; mean ± SD, n = 3
Experimental: as §2

EC50 [2]: 990 ± 92 µM
GI50 [4]: 28 ± 7.1 µM
IC50 [5]: 8.63 ± 1.66 µM
GI50 [7]: 24 ± 8 µM
EC50 [8]: 648 ± 55 µM
SMILES: C(=NNc1nc(-c2ccccc2)c[se]1)c1ccccc1 [Compound 1, 2-(2-benzylidenehydrazinyl)-4-phenyl-1,3-selenazole]
antiproliferative activity class WiDr [1]: good activity (good activity (GI50 = 1–10 μM))
GI50 [1]: 4.8 ± 0.8 µM
antiproliferative activity class HBL-100 [3]: moderate activity (moderate activity (GI50 = 10–100 μM))
GI50 [3]: 91 ± 12 µM
antiproliferative activity class A549 [4]: moderate activity (moderate activity (GI50 = 10–100 μM))
ORAC [6]: 0.75 ± 0.05 TE
antiproliferative activity class SW1573 [7]: moderate activity (moderate activity (GI50 = 10–100 μM))

SMILES: COc1ccc(-c2c[se]c(NN=Cc3ccccc3)n2)cc1 [Compound 1-OMe, 2-(2-benzylidenehydrazinyl)-4-(4-methoxyphenyl)-1,3-selenazole]
GI50 [1]: > 100 µM
EC50 [2]: 806 ± 85 µM
GI50 [3]: > 100 µM
GI50 [4]: > 100 µM
IC50 [5]: 54.3 ± 4.54 µM
ORAC [6]: 0.74 ± 0.06 TE
GI50 [7]: 42 ± 7.7 µM
EC50 [8]: 548 ± 53 µM

SMILES: O=[N+]([O-])c1ccccc1C=NNc1nc(-c2ccccc2)c[se]1 [Compound 2, 2-(2-(2-nitrobenzylidene)hydrazinyl)-4-phenyl-1,3-selenazole]
antiproliferative activity class WiDr [1]: good activity (good activity (GI50 = 1–10 μM))
GI50 [1]: 5 ± 0.9 µM
EC50 [2]: 390 ± 48 µM
GI50 [3]: 21 ± 8.6 µM
antiproliferative activity class A549 [4]: good activity (good activity (GI50 = 1–10 μM))
GI50 [4]: 4.9 ± 1.5 µM
IC50 [5]: 21.9 ± 5.6 µM
ORAC [6]: 0.82 ± 0.07 TE
antiproliferative activity class SW1573 [7]: good activity (good activity (GI50 = 1–10 μM))
GI50 [7]: 5.3 ± 0.6 µM
EC50 [8]: 357 ± 41 µM

SMILES: Cc1ccc(-c2c[se]c(NN=Cc3ccccc3[N+](=O)[O-])n2)cc1 [Compound 2-Me, 2-(2-(2-nitrobenzylidene)hydrazinyl)-4-(p-tolyl)-1,3-selenazole]
antiproliferative activity class WiDr [1]: good activity (good activity (GI50 = 1–10 μM))
GI50 [1]: 8.2 ± 1 µM
EC50 [2]: 470 ± 41 µM
GI50 [3]: 95 ± 8.1 µM
antiproliferative activity class A549 [4]: good activity (good activity (GI50 = 1–10 μM))
GI50 [4]: 8.8 ± 2.2 µM
IC50 [5]: 20.2 ± 4.3 µM
ORAC [6]: 0.77 ± 0.05 TE
antiproliferative activity class SW1573 [7]: good activity (good activity (GI50 = 1–10 μM))
GI50 [7]: 4.6 ± 1.2 µM
EC50 [8]: 416 ± 45 µM

SMILES: COc1ccc(-c2c[se]c(NN=Cc3ccccc3[N+](=O)[O-])n2)cc1 [Compound 2-OMe, 4-(4-methoxyphenyl)-2-(2-(2-nitrobenzylidene)hydrazinyl)-1,3-selenazole]
GI50 [1]: 22 ± 2.3 µM
EC50 [2]: 560 ± 53 µM
GI50 [3]: > 100 µM
GI50 [4]: 22 ± 5.6 µM
IC50 [5]: 40.5 ± 3.8 µM
ORAC [6]: 0.82 ± 0.07 TE
GI50 [7]: 46 ± 10 µM
EC50 [8]: 433 ± 39 µM

SMILES: O=[N+]([O-])c1cccc(C=NNc2nc(-c3ccccc3)c[se]2)c1 [Compound 3, 2-(2-(3-nitrobenzylidene)hydrazinyl)-4-phenyl-1,3-selenazole]
GI50 [1]: 40 ± 0.6 µM
EC50 [2]: 420 ± 45 µM
GI50 [3]: 28 ± 0.8 µM
antiproliferative activity class A549 [4]: good activity (good activity (GI50 = 1–10 μM))
GI50 [4]: 6.1 ± 0.8 µM
IC50 [5]: 174 ± 11.6 µM
ORAC [6]: 0.90 ± 0.06 TE
GI50 [7]: 16 ± 4.8 µM
EC50 [8]: 325 ± 38 µM

SMILES: Cc1ccc(-c2c[se]c(NN=Cc3cccc([N+](=O)[O-])c3)n2)cc1 [Compound 3-Me, 2-(2-(3-nitrobenzylidene)hydrazinyl)-4-(p-tolyl)-1,3-selenazole]
GI50 [1]: 55 ± 19 µM
EC50 [2]: 480 ± 50 µM
GI50 [3]: 60 ± 9.5 µM
GI50 [4]: 44 ± 15 µM
IC50 [5]: 152 ± 10.1 µM
ORAC [6]: 0.83 ± 0.05 TE
GI50 [7]: 18 ± 4.5 µM
EC50 [8]: 571 ± 45 µM

SMILES: COc1ccc(-c2c[se]c(NN=Cc3cccc([N+](=O)[O-])c3)n2)cc1 [Compound 3-OMe, 4-(4-methoxyphenyl)-2-(2-(3-nitrobenzylidene)hydrazinyl)-1,3-selenazole]
GI50 [1]: > 100 µM
EC50 [2]: 488 ± 46 µM
GI50 [3]: > 100 µM
GI50 [4]: 52 ± 1 µM
IC50 [5]: 298 ± 14.8 µM
ORAC [6]: 0.86 ± 0.07 TE
antiproliferative activity class SW1573 [7]: good activity (good activity (GI50 = 1–10 μM))
GI50 [7]: 8.4 ± 0.2 µM
EC50 [8]: 632 ± 50 µM
